Data published in paper PMC11478334, “Quaternized Curcumin Derivative—Synthesis, Physicochemical Characteristics, and Photocytotoxicity, Including Antibacterial Activity after Irradiation with Blue Light” (Molecules, 2024).
Read-outs that look alike come from different tables or passages of the source.

Experiments:
[1] = test system: S. aureus; settings: cited from earlier work
[2] = test system: P. aeruginosa; settings: 50 µg/mL; 670 nm; 97.65 J/cm^2; 5 min; cited from earlier work
[3] = design: method as in doi:10.1016/j.synthmet.2008.06.007; settings: TTF column, cited from earlier work
[4] = cited from earlier work
[5] = test system: Aliivibrio fischeri; assay: Microtox acute toxicity test; format: cell-based; settings: tested at 1, 10 and 100 µM
Description: All studied compounds were subjected to a Microtox acute toxicity test. The test is based on bioluminescent Aliivibrio fischeri bacteria, which are very sensitive to the presence of toxic substances. Changes in the toxicity of the environment surrounding the bacterium influence its respiratory processes and translate into the emitted bioluminescence intensity. Therefore, in contact with a toxic substance at a specific concentration, a linear decrease in luminescence is observed. Dimethylsulfoxide was used as a solubilizer of studied compounds in amounts not exceeding 1% v/v. To determine the effect of the solvent alone, 1% DMSO solution in water was also tested.
The acute toxicity of the tested curcumionoids was investigated on a Modern Water Microtox Model 500 apparatus equipped with Modern Water MicrotoxOmni 4.2 software, according to the 81.9% screening test procedure provided by the manufacturer (Modern Water, London, UK). All the reagents and solutions (Microtox Acute Reagent, Microtox Diluent, and Microtox Osmotic Adjusting Solution) were purchased from Tigret (Warsaw, Poland). Solutions of the tested compounds were prepared using DMSO and deionized water. […] Each compound was tested at three final concentrations (1 µM, 10 µM, and 100 µM) and at two time points: 5 min and 15 min. The change in the bacterial bioluminescence was monitored after the addition of the sample solution and compared to the negative control.

Compound: O=C([O-])c1c(Cl)c(Cl)c(Cl)c(Cl)c1-c1c2cc(I)c(=O)c(I)c-2oc2c(I)c([O-])c(I)cc12.[Na+].[Na+] [Rose bengal]
- Efficiency (log reduction) ([1]; 0.31 µg/mL, 515 nm, 5.8 mW/cm^2, 37 J/cm^3): 6 log
- Efficiency (log reduction) ([1]; 0.62 µg/mL, 515 nm, 5.8 mW/cm^2, 18 J/cm^2): 6 log

Compound: Cc1cc2nc3ccc(N(C)C)cc3[s+]c2cc1N.[Cl-] [Toluidine blue]
- Efficiency (log reduction) ([1]; 50 µg/mL, 670 nm, 97.65 J/cm^2, 5 min): 2.66 log
- Efficiency (log reduction) [2]: 2.36 log

Compound: [Zn+2].c1ccc2c(c1)-c1nc-2nc2[n-]c(nc3nc([n-]c4nc(n1)-c1ccccc1-4)-c1ccccc1-3)c1ccccc21 [ZnPc, zinc(II) phthalocyanine]
- singlet oxygen quantum yield ([3]; DMF): 0.56 [39]
- singlet oxygen quantum yield ([3]; DMSO): 0.67 [39]
- 10^−5 Φp (photodecomposition quantum yield) ([4]; DMF): 1.02 [38] 10^−5
- ΦP (photodecomposition quantum yield) ([4]; DMF): 10.2 × 10^−6
- 10^−5 Φp (photodecomposition quantum yield) ([4]; DMSO): 0.35 [39] 10^−5
- ΦP (photodecomposition quantum yield) ([4]; DMSO): 3.5 × 10^−6

Compound: COc1cc(C=CC2=CC(C=Cc3ccc(O)c(OC)c3)=[O+][B-](F)(F)O2)ccc1O [curcumin–BF2 complex, reference compound]
- acute toxicity / ecotoxicity verdict [5]: toxic at every concentration tested
